Assay results: US12559494B2, “Functionalized lactams as modulators of the 5-hydroxytryptamine receptor 7 and their method of use” (Temple University - Of The Commonwealth System of Higher …, priority 2018, dated 2026)
Counter-ions that a name gives are not always drawn. Like-named read-outs stand apart in the source and are kept apart here.

What was measured:
5HT7 receptors [1] = target: T1, 5HT7 receptors (Homo sapiens, UniProt P34969); assay: Functional data (Kb), HitHunter cAMP enzyme fragment complementation assay with 5-HT as agonist; assay type: cell-based; set-up: expressed in transfected cells; G418 selection)
Description: Functional efficacy of the compounds of the disclosure on 5-HT7 serotonin receptors were measured in a cell based cAMP enzyme fragment complementation assay using the HitHunter cAMP assay (DiscoveRx). Cells stably expressing human 5HT7 receptors were plated in 96-well plates at 4000 cells/well, 16-20 hours prior to assay in growth media (Ultraculture medium, 2 mM GlutaMax and G418 1 mg/mL. Serial dilutions of the agonist, 5-hydroxytryptamine (5-HT), were prepared in a final concentration range of 10 μM to 10 nM. Compounds of the disclosure were prepared in 3-fold serial dilutions to obtain a final concentration range of 10 μM to 0.1 nM. Compounds of the disclosure are tested for agonist activity in the absence of 5-HT and antagonist activity in the presence of 5-HT. For the cAMP assay, the protocol was followed according to the instructions provided by the supplier. Briefly, cells were incubated with a compound of the disclosure for 30 minutes at 37° C. prior to addition of EC70 concentration of 5-HT. After an additional 30 minutes, cAMP antibody/cell lysis solution was added (20 μL/well) and incubated for 60 minutes at room temperature. cAMP XS+EA reagent is added (20 μL/well) and incubated for 2 hours at room temperature. Luminescence was read on the Envision Multilabel plate reader.

5HT7 receptors [2] = target: T1, 5HT7 receptors; assay: Radiolabeled binding (IC50 and Ki), [3H]LSD competition on membranes of cells expressing recombinant 5HT7 receptors; set-up: expressed in transfected cells
Description: Radiolabel Binding Studies for Serotonin 5HT7 Receptors, Method 1:
(§1) A solution of the compound of the disclosure to be tested is prepared as a 1-mg/ml stock in Assay Buffer or DMSO according to its solubility. A similar stock of the reference compound chlorpromazine is also prepared as a positive control. Eleven dilutions (5×assay concentration) of the compound of the disclosure and chlorpromazine are prepared in the Assay Buffer by serial dilution to yield final corresponding assay concentrations ranging from 10 pM to 10 μM.
A stock concentration of 5 nM [^3H]LSD (lysergic acid diethyl amide) is prepared in 50 mM Tris-HCl, 10 mM MgCl2, 1 mM EDTA, pH 7.4 (Assay Buffer). Aliquots (50 μl) of radioligand are dispensed into the wells of a 96-well plate containing 100 μl of Assay Buffer. Duplicate 50-μl aliquots of the compound of the disclosure test and chlorpromazine positive control reference compound serial dilutions are added.
Membrane fractions of cells expressing recombinant 5HT7 receptors (50 μL) are dispensed into each well. The membranes are prepared from stably transfected cell lines expressing 5HT7 receptors cultured on 10-cm plates by harvesting PBS-rinsed monolayers, resuspending and lysing in chilled, hypotonic 50 mM Tris-HCl, pH 7.4, centrifuging at 20,000×g, decanting the supernatant and storing at −80° C.; the membrane preparations are resuspended in 3 ml of chilled Assay Buffer and homogenized by several passages through a 26 gauge needle before using in the assay.
The 250-μl reactions are incubated at room temperature for 1.5 hours, then harvested by rapid filtration onto 0.3% polyethyleneimine-treated, 96-well filter mats using a 96-well Filtermate harvester. Four rapid 500-μl washes are performed with chilled Assay Buffer to reduce non-specific binding. The filter mats are dried, then scintillant is added to the filters and the radioactivity retained on the filters is counted in a Microbeta scintillation counter.
Raw data (dpm) representing total radioligand binding (i.e., specific+non-specific binding) are plotted as a function of the logarithm of the molar concentration of the competitor (i.e., test or reference compound). Non-linear regression of the normalized (i.e., percent radioligand binding compared to that observed in the absence of test or reference compound) raw data is performed in Prism 4.0 (GraphPad Software) using the built-in three parameter logistic model describing ligand competition binding to radioligand-labeled sites: y=bottom+[(top-bottom)/(1+10×−logIC50)] where bottom equals the residual radioligand binding measured in the presence of 10 μM reference compound (i.e., non-specific binding) and top equals the total radioligand binding observed in the absence of competitor. The log IC50 (i.e., the log of the ligand concentration that reduces radioligand binding by 50%) is thus estimated from the data and used to obtain the Ki by applying the Cheng-Prusoff approximation: Ki=IC50/(1+[ligand]/KD) • where [ligand] equals the assay radioligand concentration and KD equals the affinity constant of the radioligand for the target receptor.
^1Radiolabeled Binding (IC50 and K1)
as §1, with “tested was” for “tested is”, “chlorpromazine was” for “chlorpromazine is”, “dilutions (5× assay” for “dilutions (5×assay”, “chlorpromazine were” for “chlorpromazine are”, “[…]” for “10 pM”
A stock concentration of 5 nM [^3H]LSD (lysergic acid diethyl amide) was prepared in 50 mM Tris-HCl, 10 mM MgCl2, 1 mM EDTA, pH 7.4 (Assay Buffer). Aliquots (50 μl) of radioligand were dispensed into the wells of a 96-well plate containing 100 μl of Assay Buffer. […]

[3] = cAMP assay, cells stably expressing human 5HT7 receptors, antagonist activity in the presence of EC70 5-HT, read-out: Kb (nM)^2
[4] = [3H]LSD radioligand, membranes of cells expressing recombinant 5HT7 receptors, read-out: IC50 (nM)^1
[5] = Table 35, scaffold drawing 615, antagonist mode vs 5-HT, read-out: Kb
[6] = Table 35, scaffold drawing 615, read-out: IC50
[7] = Table 37, scaffold drawing 617, antagonist mode vs 5-HT, read-out: Kb

T1 sequence (P34969 whole entry, the tested form may be a part): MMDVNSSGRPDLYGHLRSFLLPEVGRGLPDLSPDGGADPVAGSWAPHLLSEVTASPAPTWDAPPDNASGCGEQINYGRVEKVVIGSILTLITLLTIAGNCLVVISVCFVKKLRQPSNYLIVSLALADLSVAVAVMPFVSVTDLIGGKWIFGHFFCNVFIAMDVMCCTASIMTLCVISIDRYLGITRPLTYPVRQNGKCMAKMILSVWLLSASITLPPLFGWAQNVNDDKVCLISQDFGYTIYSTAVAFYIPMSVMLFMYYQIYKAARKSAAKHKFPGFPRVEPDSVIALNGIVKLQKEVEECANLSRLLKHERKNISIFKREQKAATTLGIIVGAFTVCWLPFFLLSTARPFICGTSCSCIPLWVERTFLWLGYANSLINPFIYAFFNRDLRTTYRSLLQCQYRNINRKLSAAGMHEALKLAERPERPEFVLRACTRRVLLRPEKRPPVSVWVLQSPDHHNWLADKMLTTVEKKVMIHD

Row | Structure (SMILES) | Kb (5HT7 receptors [1]; [3]) [nM] | IC50 (5HT7 receptors [2]; [4]) [nM] | Ki (5HT7 receptors [2]; Table 35, scaffold drawing 615) [nM] | other results
1 | CCC1(CC)CC(CCN2CCN(c3ccccc3C(C)C)CC2)NC1=O (stereo not shown) [3,3-diethyl-5-(2-(4-(2-isopropylphenyl)piperazin-1-yl)ethyl)pyrrolidin-2-one] | 163 | 23 | – | –
2 | CCC1(CC)CC(CCN2CCN(c3ccccc3N3CCOCC3)CC2)NC1=O (stereo not shown) [3,3-diethyl-5-(2-(4-(2-morpholinophenyl)piperazin-1-yl)ethyl)pyrrolidin-2-one] | 32.3 | 24 | – | –
3 | CCC1(CC)CC(CCN2CCN(c3ccc(F)cc3)CC2)NC1=O (stereo not shown) [3,3-diethyl-5-(2-(4-(4-fluorophenyl)piperazin-1-yl)ethyl)pyrrolidin-2-one] | 8.98 | 8.5 | – | –
4 | CCC1(CC)CC(CCN2CCN(c3ccc(O)cc3)CC2)NC1=O (stereo not shown) [3,3-diethyl-5-(2-(4-(4-hydroxyphenyl)piperazin-1-yl)ethyl)pyrrolidin-2-one] | 50 | 34 | – | –
5 | CCC1(CC)CC(CCN2CCN(c3ccc(C)cc3N3CCOCC3)CC2)NC1=O (stereo not shown) [3,3-diethyl-5-(2-(4-(4-methyl-2-morpholinophenyl)piperazin-1-yl)ethyl)pyrrolidin-2-one] | 59.3 | 74 | – | –
6 | CCC1(CC)C[C@H](CCN2CCN(c3ccc(F)cc3)CC2)NC1=O [(R)-3,3-diethyl-5-(2-(4-(4-fluorophenyl)piperazin-1-yl)ethyl)pyrrolidin-2-one] | – | – | – | Kb (5HT7 receptors [1]; [5]): 0.81 nM; IC50 (5HT7 receptors [2]; [6]): 12.3 nM
7 | CCC1(CC)C[C@H](CN2CCN(c3ccc(C)cc3N3CCOCC3)CC2)NC1=O [(R)-3,3-diethyl-5-((4-(4-methyl-2-morpholinophenyl)piperazin-1-yl)methyl)pyrrolidin-2-one formate] | – | – | 132 | Kb (5HT7 receptors [1]; [5]): 43.8 nM
8 | CCC1(CC)C[C@H](CCN2CCN(c3ccc(Cl)c(Cl)c3)CC2)NC1=O [(R)-5-(2-(4-(3,4-dichlorophenyl)piperazin-1-yl)ethyl)-3,3-diethylpyrrolidin-2-one] | – | – | – | Kb (5HT7 receptors [1]; [5]): 6.19 nM; IC50 (5HT7 receptors [2]; [6]): 82.8 nM
9 | CCC1(CC)C[C@H](CCN2CCN(c3ccc(F)c(Cl)c3)CC2)NC1=O [(R)-5-(2-(4-(3-chloro-4-fluorophenyl)piperazin-1-yl)ethyl)-3,3-diethylpyrrolidin-2-one] | – | – | – | Kb (5HT7 receptors [1]; [5]): 1.92 nM; IC50 (5HT7 receptors [2]; [6]): 8.7 nM
10 | CCC1(CC)C[C@H](CCN2CCN(c3cccc(Cl)c3)CC2)NC1=O [(R)-5-(2-(4-(3-chlorophenyl)piperazin-1-yl)ethyl)-3,3-diethylpyrrolidin-2-one] | – | – | – | Kb (5HT7 receptors [1]; [5]): 1.38 nM; IC50 (5HT7 receptors [2]; [6]): 9.9 nM
11 | CCC1(CC)C[C@@H](CCN2CCN(c3ccc(C)cc3)CC2)NC1=O [(S)-3,3-diethyl-5-(2-(4-(p-tolyl)piperazin-1-yl)ethyl)pyrrolidin-2-one] | – | – | – | Kb (5HT7 receptors [1]; Table 36, scaffold drawing 616, antagonist mode vs 5-HT, read-out: Kb): 58.1 nM; Ki (5HT7 receptors [2]; Table 36, scaffold drawing 616): 79 nM
12 | CC(=O)N1CCC2(CC1)C[C@H](CCN1CCN(c3cccc(Cl)c3)CC1)NC2=O [drawing 617 n=2 R3=3-Cl-Phenyl R7=Acetyl, (R)-8-acetyl-3-(2-(4-(3-chlorophenyl)piperazin-1-yl)ethyl)-2,8-diazaspiro[4.5]decan-1-one] | – | – | – | Kb (5HT7 receptors [1]; [7]): 5.04 nM; Ki (5HT7 receptors [2]; Table 37, scaffold drawing 617): 63 nM
13 | CS(=O)(=O)N1CCC2(CC1)C[C@H](CCN1CCN(c3cccc(Cl)c3)CC1)NC2=O [drawing 617 n=2 R3=3-Cl-Phenyl R7=MeSO2, (R)-3-(2-(4-(3-chlorophenyl)piperazin-1-yl)ethyl)-8-(methylsulfonyl)-2,8-diazaspiro[4.5]decan-1-one] | – | – | – | Kb (5HT7 receptors [1]; [7]): 13.5 nM; Ki (5HT7 receptors [2]; Table 37, scaffold drawing 617): 107 nM
14 | CC(=O)N1CCC2(CC1)C[C@H](CCN1CCN(c3ccc(F)cc3)CC1)NC2=O [drawing 617 n=2 R3=4-F-Phenyl R7=Acetyl, (R)-8-acetyl-3-(2-(4-(4-fluorophenyl)piperazin-1-yl)ethyl)-2,8-diazaspiro[4.5]decan-1-one] | – | – | – | Kb (5HT7 receptors [1]; [7]): 14.4 nM; Ki (5HT7 receptors [2]; Table 37, scaffold drawing 617): 76 nM
15 | CCC1(CC)C[C@H](CCN2CC3CN(c4ccccc4)CC3C2)NC1=O (stereo partly drawn) [drawing 619 n=2 R1=Ethyl R2=Ethyl R3=Phenyl, (5R)-3,3-diethyl-5-(2-(5-phenylhexahydropyrrolo[3,4-c]pyrrol-2(1H)-yl)ethyl)pyrrolidin-2-one] | – | – | – | Kb (5HT7 receptors [1]; Table 39, scaffold drawing 619, antagonist mode vs 5-HT, read-out: Kb): 144 nM

Now from value to molecule, other results behind:

Row | Kb (5HT7 receptors [1]; [3]) [nM] | IC50 (5HT7 receptors [2]; [4]) [nM] | Ki (5HT7 receptors [2]; Table 35, scaffold drawing 615) [nM] | Structure (SMILES) | other results
16 | 24.1 | 28 | – | CCC1(CC)CC(CCN2CCN(c3ccc(C)cc3)CC2)NC1=O (stereo not shown) [3,3-diethyl-5-(2-(4-(p-tolyl)piperazin-1-yl)ethyl)pyrrolidin-2-one] | –
17 | 17.8 | 68 | – | CCC1(CC)CC(CCN2CCN(c3ccccc3)CC2)NC1=O (stereo not shown) [3,3-diethyl-5-(2-(4-phenylpiperazin-1-yl)ethyl)pyrrolidin-2-one] | –
18 | 54.6 | 13 | – | CCC1(CC)CC(CCN2CCN(c3ccc(Cl)cc3)CC2)NC1=O (stereo not shown) [5-(2-(4-(4-chlorophenyl)piperazin-1-yl)ethyl)-3,3-diethylpyrrolidin-2-one] | –
19 | – | – | 11 | CCC1(CC)C[C@H](CCN2CCN(c3ccc(C)cc3)CC2)NC1=O [(R)-3,3-diethyl-5-(2-(4-(p-tolyl)piperazin-1-yl)ethyl)pyrrolidin-2-one] | Kb (5HT7 receptors [1]; [5]): 8.43 nM
20 | – | – | 121 | CCC1(CC)C[C@H](CN2CCN(c3ccccc3C(C)C)CC2)NC1=O [(R)-3,3-diethyl-5-((4-(2-isopropylphenyl)piperazin-1-yl)methyl)pyrrolidin-2-one formate] | –
21 | – | – | 243 | CCC1(CC)C[C@H](CN2CCN(c3ccc(F)cc3)CC2)NC1=O [(R)-3,3-diethyl-5-((4-(4-fluorophenyl)piperazin-1-yl)methyl)pyrrolidin-2-one formate] | –
22 | – | – | 249 | CCC1(CC)C[C@H](CN2CCN(c3ccc(C)cc3)CC2)NC1=O [(R)-3,3-diethyl-5-((4-(p-tolyl)piperazin-1-yl)methyl)pyrrolidin-2-one formate] | –
23 | – | – | 669 | CCC1(CC)C[C@H](CN2CCN(c3ccccn3)CC2)NC1=O [(R)-3,3-diethyl-5-((4-(pyridin-2-yl)piperazin-1-yl)methyl)pyrrolidin-2-one formate] | –
24 | – | – | 1090 | CCC1(CC)C[C@H](CN2CCN(c3cccc(Cl)c3)CC2)NC1=O [(R)-5-((4-(3-chlorophenyl)piperazin-1-yl)methyl)-3,3-diethylpyrrolidin-2-one] | –
25 | – | – | 819 | CCC1(CC)C[C@H](CN2CCN(c3ccccc3)CC2)NC1=O [drawing 615 n=1 R1=Ethyl R2=Ethyl R3=Phenyl, (R)-3,3-diethyl-5-((4-phenylpiperazin-1-yl)methyl)pyrrolidin-2-one formate] | –
